These results are taken from patent US12486300B2, “Mithramycin oxime derivatives having increased selectivity and anti-cancer activity” (University of Kentucky Research Foundation, priority 2018, dated 2025).

This test concerns TC32 Ewing sarcoma cells, expressing EWS-FLI1. Briefly: Growth inhibition assay, TC32 cells. The test is classed as cell-based. The settings on record: ratio of GI50 PC3 to TC32. As to the method:
Growth inhibition assay to assess cytotoxicity in ETS vs non-ETS expressing cells. Cells were seeded in clear 96-well plates (VWR, Radnor, PA). Seeding densities were optimized for each cell line to support 5 days of linear growth. Following a 24 hours attachment period, cells in duplicate wells were treated with half-log increments of respective compounds (0 nM and 0.3 nM-10 μM). Working stocks were prepared from an initial 10 mM drug stock diluted in either 100% ethanol or dimethyl sulfoxide (DMSO). All wells contained a final concentration of 0.1% (v/v) respective organic solvent. Immediately following treatment, cell viability was measured for vehicle control (Day 0) wells. Cell viability was measured in the remaining wells after 72 hours of incubation with compound or vehicle control (Day 3).
Percent viability, relative to the initial cell seeding concentration, was calculated by ((TreatmentDay3−Vehicle ControlDay0)/(Vehicle ControlDay3−Vehicle ControlDay0))×100. Percent cell viability was plotted as a function of compound concentration (Log [M]) and the data were fit using a 3-parameter non-linear model with fixed Hill slope constant and 4-parameter non-linear model with variable Hill slope constant. The model with the best curve fit was used to estimate the GI50 in GraphPad Prism 7.0 software (GraphPad Software, La Jolla, CA). The 3-parameter equation used was Y=Bottom+(Top−Bottom)/(1+10[…]((X−Log[IC50]))). The 4-parameter equation used was Y=Bottom+(Top−Bottom)/(1+10[…]((Log[IC50]−X)*Hillslope)). Top and Bottom are plateaus in the units of the Y-axis (response). IC50 is the response (Y-axis) halfway between Top and Bottom plateaus.
All compounds were tested at least once in multi-well replicates and each experiment included one a control compound (i.e., MTM) to ensure the stable response of the cell lines. The selectivity index was estimated by determining the ratio of GI50 estimates between ETS fusion negative and ETS fusion positive cell lines.
In the case of `COC(C(=NOCC(=O)NCCc1ccccc1)C(O)C(C)O)C1Cc2cc3cc(OC4CC(OC5CC(O)C(O)C(C)O5)C(O)C(C)O4)c(C)c(O)c3c(O)c2C(=O)C1OC1CC(OC2CC(OC3CC(C)(O)C(O)C(C)O3)C(O)C(C)O2)C(O)C(C)O1` (stereo not drawn) [MTM (29)], the “PC:TC32 (cellular selectivity)” value amounted to 1.58.

In the case of `COC(=O)C(Cc1ccccc1)NC(=O)CON=C(C(O)C(C)O)C(OC)C1Cc2cc3cc(OC4CC(OC5CC(O)C(O)C(C)O5)C(O)C(C)O4)c(C)c(O)c3c(O)c2C(=O)C1OC1CC(OC2CC(OC3CC(C)(O)C(O)C(C)O3)C(O)C(C)O2)C(O)C(C)O1` (stereo not drawn) [MTM (30)], the “PC:TC32 (cellular selectivity)” value was determined as 2.08.

On to `COC(C(=NOCC(=O)NCc1ccccc1)C(O)C(C)O)C1Cc2cc3cc(OC4CC(OC5CC(O)C(O)C(C)O5)C(O)C(C)O4)c(C)c(O)c3c(O)c2C(=O)C1OC1CC(OC2CC(OC3CC(C)(O)C(O)C(C)O3)C(O)C(C)O2)C(O)C(C)O1` (stereo not drawn) [MTM (31)], for which the “PC:TC32 (cellular selectivity)” value was found to be 1.83.

As for `COC(C(=NOCC(=O)Nc1ccccc1)C(O)C(C)O)C1Cc2cc3cc(OC4CC(OC5CC(O)C(O)C(C)O5)C(O)C(C)O4)c(C)c(O)c3c(O)c2C(=O)C1OC1CC(OC2CC(OC3CC(C)(O)C(O)C(C)O3)C(O)C(C)O2)C(O)C(C)O1` (stereo not drawn) [MTM (32)], the “PC:TC32 (cellular selectivity)” value came to 1.11.

Take `COC(C(=NNC(=O)CCCCCN1C(=O)C=CC1=O)C(O)C(C)O)C1Cc2cc3cc(OC4CC(OC5CC(O)C(O)C(C)O5)C(O)C(C)O4)c(C)c(O)c3c(O)c2C(=O)C1OC1CC(OC2CC(OC3CC(C)(O)C(O)C(C)O3)C(O)C(C)O2)C(O)C(C)O1` (stereo not drawn) [MTM (33)]: the “PC:TC32 (cellular selectivity)” value is recorded as 3.9.

In the case of `COC(=O)C(Cc1c[nH]c2ccccc12)NC(=O)C(C)NC(=O)CON=C(C(O)C(C)O)C(OC)C1Cc2cc3cc(OC4CC(OC5CC(O)C(O)C(C)O5)C(O)C(C)O4)c(C)c(O)c3c(O)c2C(=O)C1OC1CC(OC2CC(OC3CC(C)(O)C(O)C(C)O3)C(O)C(C)O2)C(O)C(C)O1` (stereo not drawn) [MTM (34)], the “PC:TC32 (cellular selectivity)” value was found to be 4.28.

Regarding `COC(C(=NOCC(=O)NC(Cc1c[nH]c2ccccc12)C(=O)O)C(O)C(C)O)C1Cc2cc3cc(OC4CC(OC5CC(O)C(O)C(C)O5)C(O)C(C)O4)c(C)c(O)c3c(O)c2C(=O)C1OC1CC(OC2CC(OC3CC(C)(O)C(O)C(C)O3)C(O)C(C)O2)C(O)C(C)O1` (stereo not drawn) [MTM (39)], the “PC:TC32 (cellular selectivity)” value came to 7.4.

`COC(C(=NOCC(=O)NC(Cc1c[nH]c2ccccc12)C(=O)NCCc1c[nH]c2ccccc12)C(O)C(C)O)C1Cc2cc3cc(OC4CC(OC5CC(O)C(O)C(C)O5)C(O)C(C)O4)c(C)c(O)c3c(O)c2C(=O)C1OC1CC(OC2CC(OC3CC(C)(O)C(O)C(C)O3)C(O)C(C)O2)C(O)C(C)O1` (stereo not drawn) [MTM (43)]: the “PC:TC32 (cellular selectivity)” value turned out to be 2.6.

Regarding `COC(C(=NOCC(=O)Nc1ccncc1)C(O)C(C)O)C1Cc2cc3cc(OC4CC(OC5CC(O)C(O)C(C)O5)C(O)C(C)O4)c(C)c(O)c3c(O)c2C(=O)C1OC1CC(OC2CC(OC3CC(C)(O)C(O)C(C)O3)C(O)C(C)O2)C(O)C(C)O1` (stereo not drawn) [MTM (45)], the “PC:TC32 (cellular selectivity)” value came to 2.4.

Turning to `COC(C(=NOCC(=O)NC(Cc1c[nH]c2ccccc12)C(=O)Nc1ccccc1)C(O)C(C)O)C1Cc2cc3cc(OC4CC(OC5CC(O)C(O)C(C)O5)C(O)C(C)O4)c(C)c(O)c3c(O)c2C(=O)C1OC1CC(OC2CC(OC3CC(C)(O)C(O)C(C)O3)C(O)C(C)O2)C(O)C(C)O1` (stereo not drawn) [MTM (47)], the “PC:TC32 (cellular selectivity)” value is reported as 2.7.

`COC(C(=NOCC(=O)NC(Cc1c[nH]c2ccccc12)C(=O)NCc1c[nH]c2ccccc12)C(O)C(C)O)C1Cc2cc3cc(OC4CC(OC5CC(O)C(O)C(C)O5)C(O)C(C)O4)c(C)c(O)c3c(O)c2C(=O)C1OC1CC(OC2CC(OC3CC(C)(O)C(O)C(C)O3)C(O)C(C)O2)C(O)C(C)O1` (stereo not drawn) [MTM (48)]: the “PC:TC32 (cellular selectivity)” value is 2.30.

Regarding `COC(C(=NOCC(=O)Nc1cccnc1)C(O)C(C)O)C1Cc2cc3cc(OC4CC(OC5CC(O)C(O)C(C)O5)C(O)C(C)O4)c(C)c(O)c3c(O)c2C(=O)C1OC1CC(OC2CC(OC3CC(C)(O)C(O)C(C)O3)C(O)C(C)O2)C(O)C(C)O1` (stereo not drawn) [MTM (49)], the “PC:TC32 (cellular selectivity)” value came to 2.4.

Take `COC(C(=NOCC(=O)Nc1cncnc1)C(O)C(C)O)C1Cc2cc3cc(OC4CC(OC5CC(O)C(O)C(C)O5)C(O)C(C)O4)c(C)c(O)c3c(O)c2C(=O)C1OC1CC(OC2CC(OC3CC(C)(O)C(O)C(C)O3)C(O)C(C)O2)C(O)C(C)O1` (stereo not drawn) [MTM (50)]: the “PC:TC32 (cellular selectivity)” value is 2.7.

With `COC(=O)C(Cc1ccccc1)NC(=O)C(Cc1c[nH]c2ccccc12)NC(=O)CON=C(C(O)C(C)O)C(OC)C1Cc2cc3cc(OC4CC(OC5CC(O)C(O)C(C)O5)C(O)C(C)O4)c(C)c(O)c3c(O)c2C(=O)C1OC1CC(OC2CC(OC3CC(C)(O)C(O)C(C)O3)C(O)C(C)O2)C(O)C(C)O1` (stereo not drawn) [MTM (51)], the “PC:TC32 (cellular selectivity)” value is listed as 2.2.

With `COC(=O)C(C)NC(=O)C(Cc1c[nH]c2ccccc12)NC(=O)CON=C(C(O)C(C)O)C(OC)C1Cc2cc3cc(OC4CC(OC5CC(O)C(O)C(C)O5)C(O)C(C)O4)c(C)c(O)c3c(O)c2C(=O)C1OC1CC(OC2CC(OC3CC(C)(O)C(O)C(C)O3)C(O)C(C)O2)C(O)C(C)O1` (stereo not drawn) [MTM (52)], the “PC:TC32 (cellular selectivity)” value came out at 6.6.

In the case of `CNC(=O)C(Cc1c[nH]c2ccccc12)NC(=O)C(Cc1c[nH]c2ccccc12)NC(=O)CON=C(C(O)C(C)O)C(OC)C1Cc2cc3cc(OC4CC(OC5CC(O)C(O)C(C)O5)C(O)C(C)O4)c(C)c(O)c3c(O)c2C(=O)C1OC1CC(OC2CC(OC3CC(C)(O)C(O)C(C)O3)C(O)C(C)O2)C(O)C(C)O1` (stereo not drawn) [MTM (53)], the “PC:TC32 (cellular selectivity)” value came out at 5.0.

On to `COC(C(=NOCC(=O)NC(Cc1c[nH]c2ccccc12)C(=O)NC(C)CO)C(O)C(C)O)C1Cc2cc3cc(OC4CC(OC5CC(O)C(O)C(C)O5)C(O)C(C)O4)c(C)c(O)c3c(O)c2C(=O)C1OC1CC(OC2CC(OC3CC(C)(O)C(O)C(C)O3)C(O)C(C)O2)C(O)C(C)O1` (stereo not drawn) [MTM (55)], for which the “PC:TC32 (cellular selectivity)” value came out at 2.7.

Regarding `COC(C(=NOCC(=O)NC(Cc1c[nH]c2ccccc12)C(=O)NCc1cnccn1)C(O)C(C)O)C1Cc2cc3cc(OC4CC(OC5CC(O)C(O)C(C)O5)C(O)C(C)O4)c(C)c(O)c3c(O)c2C(=O)C1OC1CC(OC2CC(OC3CC(C)(O)C(O)C(C)O3)C(O)C(C)O2)C(O)C(C)O1` (stereo not drawn) [MTM (56)], the “PC:TC32 (cellular selectivity)” value is recorded as 1.9.

`COC(C(=NOCC(=O)NC(Cc1c[nH]c2ccccc12)C(=O)NC(Cc1c[nH]c2ccccc12)c1nc(C)no1)C(O)C(C)O)C1Cc2cc3cc(OC4CC(OC5CC(O)C(O)C(C)O5)C(O)C(C)O4)c(C)c(O)c3c(O)c2C(=O)C1OC1CC(OC2CC(OC3CC(C)(O)C(O)C(C)O3)C(O)C(C)O2)C(O)C(C)O1` (stereo not drawn) [MTM (58)]: the “PC:TC32 (cellular selectivity)” value amounted to 2.4.

On to `COC(C(=NOCC(=O)Nc1ccc2[nH]ccc2c1)C(O)C(C)O)C1Cc2cc3cc(OC4CC(OC5CC(O)C(O)C(C)O5)C(O)C(C)O4)c(C)c(O)c3c(O)c2C(=O)C1OC1CC(OC2CC(OC3CC(C)(O)C(O)C(C)O3)C(O)C(C)O2)C(O)C(C)O1` (stereo not drawn) [MTM (60)], for which the “PC:TC32 (cellular selectivity)” value turned out to be 10.

Consider `COC(=O)c1ccc(NC(=O)CON=C(C(O)C(C)O)C(OC)C2Cc3cc4cc(OC5CC(OC6CC(O)C(O)C(C)O6)C(O)C(C)O5)c(C)c(O)c4c(O)c3C(=O)C2OC2CC(OC3CC(OC4CC(C)(O)C(O)C(C)O4)C(O)C(C)O3)C(O)C(C)O2)c(OCC(C)C)c1` (stereo not drawn) [MTM (61)], for which the “PC:TC32 (cellular selectivity)” value was determined as 5.7.

In the case of `COC(C(=NOCCNC(=O)c1ccc([N+](=O)[O-])c(OCC(C)C)c1)C(O)C(C)O)C1Cc2cc3cc(OC4CC(OC5CC(O)C(O)C(C)O5)C(O)C(C)O4)c(C)c(O)c3c(O)c2C(=O)C1OC1CC(OC2CC(OC3CC(C)(O)C(O)C(C)O3)C(O)C(C)O2)C(O)C(C)O1` (stereo not drawn) [MTM (63)], the “PC:TC32 (cellular selectivity)” value amounted to 13.3.

Turning to `COC(C(=NOCC(=O)NCc1ccc2cc[nH]c2c1)C(O)C(C)O)C1Cc2cc3cc(OC4CC(OC5CC(O)C(O)C(C)O5)C(O)C(C)O4)c(C)c(O)c3c(O)c2C(=O)C1OC1CC(OC2CC(OC3CC(C)(O)C(O)C(C)O3)C(O)C(C)O2)C(O)C(C)O1` (stereo not drawn) [MTM (64)], the “PC:TC32 (cellular selectivity)” value was 12.3.

Consider `COC(C(=NOCC(=O)NCc1ccc2[nH]ccc2c1)C(O)C(C)O)C1Cc2cc3cc(OC4CC(OC5CC(O)C(O)C(C)O5)C(O)C(C)O4)c(C)c(O)c3c(O)c2C(=O)C1OC1CC(OC2CC(OC3CC(C)(O)C(O)C(C)O3)C(O)C(C)O2)C(O)C(C)O1` (stereo not drawn) [MTM (65)], for which the “PC:TC32 (cellular selectivity)” value came to 20.1.

Take `COC(C(=NOCC(=O)Nc1ccc2cc[nH]c2c1)C(O)C(C)O)C1Cc2cc3cc(OC4CC(OC5CC(O)C(O)C(C)O5)C(O)C(C)O4)c(C)c(O)c3c(O)c2C(=O)C1OC1CC(OC2CC(OC3CC(C)(O)C(O)C(C)O3)C(O)C(C)O2)C(O)C(C)O1` (stereo not drawn) [MTM (66)]: the “PC:TC32 (cellular selectivity)” value was 4.2.

Take `COC(C(=NOCC(=O)Nc1ccc2c(c1)CC(=O)N2)C(O)C(C)O)C1Cc2cc3cc(OC4CC(OC5CC(O)C(O)C(C)O5)C(O)C(C)O4)c(C)c(O)c3c(O)c2C(=O)C1OC1CC(OC2CC(OC3CC(C)(O)C(O)C(C)O3)C(O)C(C)O2)C(O)C(C)O1` (stereo not drawn) [MTM (67)]: the “PC:TC32 (cellular selectivity)” value is reported as 3.8.

Regarding `COC(C(=NOCC(=O)Nc1cccc2[nH]ccc12)C(O)C(C)O)C1Cc2cc3cc(OC4CC(OC5CC(O)C(O)C(C)O5)C(O)C(C)O4)c(C)c(O)c3c(O)c2C(=O)C1OC1CC(OC2CC(OC3CC(C)(O)C(O)C(C)O3)C(O)C(C)O2)C(O)C(C)O1` (stereo not drawn) [MTM (68)], the “PC:TC32 (cellular selectivity)” value is listed as 4.5.
